Experimental data reported in US7166609B2, “Pyrimidine-4,6-dicarboxylic acid diamides for selectively inhibiting collagenases” (Sanofi-Aventis Deutschland GmbH, priority 2002, dated 2007).

Each compound was assayed against T1, catalytic domain of human collagenase 3 (MMP-13) (Homo sapiens, UniProt P45452) (assay: Enzyme activity of the catalytic domain of human collagenase 3 (MMP-13), fluorogenic substrate). Settings: not given.
T1 construct: Determining the enzyme activity of the catalytic domain of human collagenase 3 (MMP-13); purchased INVITEK, Berlin 30 100 803
Format: biochemical
Protocol: Determining the enzyme activity of the catalytic domain of human collagenase 3 (MMP-13).
Activating the proenzyme:
2 parts by volume of proenzyme are incubated with 1 part by volume of APMA solution at 37° C. for 1.5 hours. The APMA solution is prepared from a 10 mmol/L solution of p-aminophenylmercuric acetate in 0.1 mmol/L NaOH by diluting with 3 parts by volume of tris/HCl buffer, pH 7.5 (see below). The pH is adjusted to between 7.0 and 7.5 by adding 1 mmol/L HCl. After the enzyme has been activated, it is diluted to a concentration of 1.67 μg/ml using the tris/HCl buffer.
In order to measure the enzyme activity, 10 μL of enzyme solution are incubated for 15 minutes with 10 μL of a 3% (v/v) buffered solution of dimethyl sulfoxide (reaction 1). In order to measure the enzyme inhibitor activity, 10 μL of enzyme solution are incubated with 10 μL of a 3% (v/v) buffered solution of dimethyl sulfoxide containing the enzyme inhibitor (reaction 2).
In the case of both reaction 1 and reaction 2, the enzyme reaction is monitored by fluorescence spectroscopy (328 nm (extinction)/393 nm (emission)) after adding 10 μL of a 3% (v/v) aqueous solution of dimethyl sulfoxide containing 0.75 mmol of the substrate/L.
The enzyme activity is depicted as increase in extinction/minute.
The effect of the inhibitor is calculated as a percentage inhibition using the following formula: % inhibition=100−[(increase in extinction/minute in reaction 2)/(increase in extinction/minute in reaction 1)×100].
The IC50, i.e. the inhibitor concentration which is required for inhibiting the enzyme activity by 50%, is determined graphically by plotting the percentage inhibitions at different inhibitor concentrations.
The buffer solution contains 0.05% Brij (Sigma, Deisenhofen, Germany) and 0.1 mol of tris/HCl/L, 0.1 mol of NaCl/L and 0.01 mol of CaCl2/L (pH=7.5). The enzyme solution contains 1.67 μg of the enzyme domain/mL.
The substrate solution contains 0.75 mmol/L of the fluorogenic substrate (7-methoxycoumarin-4-yl)acetyl-Pro-Leu-Gly-Leu-3-(2′,4′-dinitrophenyl)-L-2,3-diaminopropionyl-Ala-Arg-NH2 (Bachem, Heidelberg, Germany).

SMILES | IC50
COc1cccc(CNC(=O)c2cc(C(=O)NCc3ccc(C(=O)N4CCC(=O)CC4)cc3)ncn2)c1 [Example 64] | 10 nM
Cc1cc(CNC(=O)c2cc(C(=O)NCc3ccc(C(=O)N4CCC(=O)CC4)cc3)ncn2)ccc1F [Example 65] | 15 nM
O=C1CCN(C(=O)c2ccc(CNC(=O)c3cc(C(=O)NCc4ccc5c(c4)CCO5)ncn3)cc2)CC1 [Example 66] | 10 nM

Same assay, conditions: catalytic domain, activated proenzyme, pH 7.5; read-out: IC50 MMP13

SMILES | IC50
CCN(CC)C(=O)c1ccc(CNC(=O)c2cc(C(=O)NCc3cccc(OC)c3)ncn2)cc1 [Example 3, Pyrimidine-4,6-dicarboxylic acid 4-(4-diethylcarbamoylbenzylamide) 6-(3-methoxybenzylamide)] | 4 nM
O=C(NCc1ccncc1)c1cc(C(=O)NCc2ccc3c(c2)CCO3)ncn1 [Example 4, Pyrimidine-4,6-dicarboxylic acid4-[(2,3-dihydrobenzofuran-5-ylmethyl)amide] 6-[(pyridin-4-ylmethyl)amide]] | 20 nM
O=C(NCc1ccc(C(=O)N2CCOCC2)cc1)c1cc(C(=O)NCc2ccc3c(c2)CCO3)ncn1 [Example 5, Pyrimidine-4,6-dicarboxylic acid 4-[(2,3-dihydrobenzofuran-5-ylmethyl)amide]6-[4-(morpholine-4-carbonyl)benzylamide]] | 8 nM
COc1cccc(CNC(=O)c2cc(C(=O)NCc3ccc(NC(=O)OC(C)C)cc3)ncn2)c1 [Example 6] | 20 nM
COc1cccc(CNC(=O)c2cc(C(=O)NCc3ccc(C(=O)NCCN4CCOCC4)cc3)ncn2)c1 [Example 36] | 10 nM
O=C(NCc1ccc2c(c1)CCO2)c1cc(C(=O)NCc2cccs2)ncn1 [Example 39] | 30 nM
O=C(NCc1cccnc1)c1cc(C(=O)NCc2ccc3c(c2)OCCO3)ncn1 [Example 44] | 200 nM
CCCNC(=O)c1ccc(CNC(=O)c2cc(C(=O)NCc3cccc(OC)c3)ncn2)cc1 [Example 62] | 13 nM
CS(=O)(=O)NC(=O)Nc1ccc(CNC(=O)c2cc(C(=O)NCc3ccc(F)c(Cl)c3)ncn2)cc1 [Example 63] | 9 nM
COc1cccc(CNC(=O)c2cc(C(=O)NCc3ccc(C(=O)N4CCC(O)CC4)cc3)ncn2)c1 [Example 67] | 15 nM
O=C(NCc1ccc(C(=O)N2CCC(O)CC2)cc1)c1cc(C(=O)NCc2ccc3c(c2)CCO3)ncn1 [Example 68] | 22 nM
Cc1cc(CNC(=O)c2cc(C(=O)NCc3ccc(C(=O)N4CCC(O)CC4)cc3)ncn2)ccc1F [Example 69] | 32 nM
Cc1cc(CNC(=O)c2cc(C(=O)NCc3ccc(C(=O)N4CCSCC4)cc3)ncn2)ccc1F [Example 70] | 24 nM
COc1cccc(CNC(=O)c2cc(C(=O)NCc3ccc(C(=O)N4CCSCC4)cc3)ncn2)c1 [Example 71] | 9 nM
O=C(NCc1ccc(C(=O)N2CCSCC2)cc1)c1cc(C(=O)NCc2ccc3c(c2)CCO3)ncn1 [Example 72] | 10 nM
COc1cccc(CNC(=O)c2cc(C(=O)NCc3ccc(C(=O)N4CCNC(=O)C4)cc3)ncn2)c1 [Example 73] | 25 nM
O=C1CN(C(=O)c2ccc(CNC(=O)c3cc(C(=O)NCc4ccc5c(c4)CCO5)ncn3)cc2)CCN1 [Example 74] | 30 nM
Cc1cc(CNC(=O)c2cc(C(=O)NCc3ccc(C(=O)N4CCNC(=O)C4)cc3)ncn2)ccc1F [Example 75] | 70 nM
O=C(NCCO)c1ccc(CNC(=O)c2cc(C(=O)NCc3ccc4c(c3)CCO4)ncn2)cc1 [Example 75a] | 34 nM

SMILES | IC50
Cc1cc(CNC(=O)c2cc(C(=O)NCc3ccc(C(=O)NCCO)cc3)ncn2)ccc1F [Example 76] | 23 nM
Cc1cc(CNC(=O)c2cc(C(=O)NCc3ccc(C(=O)NC#N)cc3)ncn2)ccc1F [Example 78] | 3 nM
O=C(NCc1ccncc1)c1ccc(CNC(=O)c2cc(C(=O)NCc3ccc4c(c3)CCO4)ncn2)cc1 [Example 82] | 30 nM
Cc1cc(CNC(=O)c2cc(C(=O)NCc3ccc(NC(=O)NS(C)(=O)=O)cc3)ncn2)ccc1F [Example 83] | 5 nM
CS(=O)(=O)NC(=O)Nc1ccc(CNC(=O)c2cc(C(=O)NCc3ccc4c(c3)CCO4)ncn2)cc1 [Example 84] | 3.2 nM
N#CNC(=O)c1ccc(CNC(=O)c2cc(C(=O)NCc3ccc4c(c3)CCO4)ncn2)cc1 [Example 85] | 3.5 nM
COc1cccc(CNC(=O)c2cc(C(=O)NCc3ccc(C(=O)NC#N)cc3)ncn2)c1 [Example 86] | 2.5 nM
Cc1cc(CNC(=O)c2cc(C(=O)NCc3ccc(C(=O)N4CCOCC4)cc3)ncn2)ccc1F [Example 87] | 24 nM
COc1cccc(CNC(=O)c2cc(C(=O)NCc3cccc(NC(=O)NS(C)(=O)=O)c3)ncn2)c1 [Example 88] | 33 nM
COc1cccc(CNC(=O)c2cc(C(=O)NCc3ccc(C(=O)NO)cc3)ncn2)c1 [Example 89] | 18 nM
Cc1cc(CNC(=O)c2cc(C(=O)NCc3ccc(C(=O)NO)cc3)ncn2)ccc1F [Example 93] | 20 nM
O=C(NO)c1ccc(CNC(=O)c2cc(C(=O)NCc3ccc4c(c3)CCO4)ncn2)cc1 [Example 94] | 20 nM
COc1cccc(CNC(=O)c2cc(C(=O)NCc3ccc(C(=O)NC(C)(C)C)cc3)ncn2)c1 [Example 96] | 50 nM
O=C(O)CNC(=O)c1ccc(CNC(=O)c2cc(C(=O)NCc3ccc4c(c3)CCO4)ncn2)cc1 [Example 98] | 20 nM
Cc1cc(CNC(=O)c2cc(C(=O)NCc3ccc(C(=O)NCCN4CCCC4)cc3)ncn2)ccc1F [Example 99] | 50 nM
COc1cccc(CNC(=O)c2cc(C(=O)NCc3ccc(NC(=O)NS(C)(=O)=O)cc3)ncn2)c1 [Example 101] | 2 nM
Cc1cc(CNC(=O)c2cc(C(=O)NCc3ccc(C(=O)NCCN4CCOCC4)cc3)ncn2)ccc1F [Example 105] | 23 nM
COC(=O)CNC(=O)c1ccc(CNC(=O)c2cc(C(=O)NCc3ccc(F)c(C)c3)ncn2)cc1 [Example 106] | 40 nM
COc1cccc(CNC(=O)c2cc(C(=O)NCc3ccc(C(=O)NC4CCNCC4)cc3)ncn2)c1 [Example 109] | 50 nM

SMILES | IC50
Cc1cc(CNC(=O)c2cc(C(=O)NCc3ccc4c(c3)OCCN4C)ncn2)ccc1F [Example 112] | 45 nM
COc1cccc(CNC(=O)c2cc(C(=O)NCc3ccc(C(=O)N4CCN(C)CC4)cc3)ncn2)c1 [Example 114] | 50 nM
COc1cccc(CNC(=O)c2cc(C(=O)NCc3ccc(C(=O)N4CCN(c5ccncc5)CC4)cc3)ncn2)c1 [Example 115] | 20 nM
COc1cccc(CNC(=O)c2cc(C(=O)NCc3ccc(NC(=O)NS(=O)(=O)c4ccc(C)cc4)cc3)ncn2)c1 [Example 118] | 2.4 nM
CN1CCN(C(=O)c2ccc(CNC(=O)c3cc(C(=O)NCc4ccc5c(c4)CCO5)ncn3)cc2)CC1 [Example 119] | 35 nM
COc1cccc(CNC(=O)c2cc(C(=O)NCc3ccc(NC(=O)NS(=O)(=O)c4ccccc4)cc3)ncn2)c1 [Example 121] | 30 nM
O=C(NCCN1CCOCC1)c1ccc(CNC(=O)c2cc(C(=O)NCc3ccc4c(c3)CCO4)ncn2)cc1 [Example 122] | 43 nM
COc1cccc(CNC(=O)c2cc(C(=O)NCc3ccc(NC(=O)NC(=O)C4CCCCC4)cc3)ncn2)c1 [Example 125] | 4 nM
COc1cccc(CNC(=O)c2cc(C(=O)NCc3ccc(NC(=O)NC(=O)c4cccnc4)cc3)ncn2)c1 [Example 126] | 2.3 nM
COc1cccc(CNC(=O)c2cc(C(=O)NCc3ccc(NC(=O)NC(=O)C(C)C)cc3)ncn2)c1 [Example 127] | 3.3 nM
COc1cccc(CNC(=O)c2cc(C(=O)NCc3ccc(NC(=O)CN4CCCC4)cc3)ncn2)c1 [Example 128] | 60 nM
O=C(NCc1ccc2c(c1)CCO2)c1cc(C(=O)NCc2cc(Cl)cs2)ncn1 [Example 129] | 22 nM
O=C(NCc1ccc(OCCN2CCOCC2)cc1)c1cc(C(=O)NCc2ccc3c(c2)CCO3)ncn1 [Example 135] | 20 nM
COc1cccc(CNC(=O)c2cc(C(=O)NCc3ccc(NC(=O)NC4CCCCC4)cc3)ncn2)c1 [Example 136] | 20 nM
COc1cccc(CNC(=O)c2cc(C(=O)NCc3ccc(NC(=O)Nc4cc(Cl)nc(Cl)c4)cc3)ncn2)c1 [Example 137] | 40 nM
COc1cccc(CNC(=O)c2cc(C(=O)NCc3ccc(NC(=O)NC(C)(C)C)cc3)ncn2)c1 [Example 138] | 50 nM
CC#CCOC(=O)Nc1ccc(CNC(=O)c2cc(C(=O)NCc3cccc(OC)c3)ncn2)cc1 [Example 139] | 10 nM
C#CCOC(=O)Nc1ccc(CNC(=O)c2cc(C(=O)NCc3cccc(OC)c3)ncn2)cc1 [Example 144] | 9 nM
COc1cccc(CNC(=O)c2cc(C(=O)NCc3ccc(NC(=O)NC(=O)c4ccccc4)cc3)ncn2)c1 [Example 147] | 3 nM
